Measurements published in the NIST ThermoML archive (doi:10.1016/j.fluid.2014.10.044).
Numbers after ± are expanded uncertainties.

Assay: xn = mol fraction of the nth substance listed
Conditions: 298.15 K, 101 kPa, Liquid; for viscosity: Concentric cylinders viscometry; for mass density: Vibrating tube method

**Q.** With `O=C(O)CO` [2-hydroxyethanoic acid] + C[N+](C)(C)CCO.[Cl-] as the compound, how does the viscosity (x2 = 0.25) read?
**A.** 311.21 ± 19 mPa·s

**Q.** What about the viscosity (x2 = 0.5) of the same compound?
**A.** 803.76 ± 74 mPa·s

**Q.** What about the mass density (x2 = 0.25) of the same compound?
**A.** 1266.5 ± 0.9 kg/m3

**Q.** And the mass density (x2 = 0.5)?
**A.** 1197.6 ± 1 kg/m3
